Assay results from ChEMBL document CHEMBL5257026, “Progress and prospects on DENV protease inhibitors” (Eur J Med Chem, 2016).
One block for each molecule: values may come before it. Residues, ends and D or L forms follow the SMILES beside them.

Key:
[1] = Inhibition of DENV2 NS2B-NS3 protease using Boc-Gly-Lys-Arg-AMC as substrate incubated for 30 mins by fluorescence assay; parameters: species or system dengue virus type 2
[2] = Inhibition of DENV2 TSV01 NS2B-NS3 protease using BOC-GRR-AMC as substrate incubated for 30 mins by spectrofluorometeric assay; parameters: species or system dengue virus type 2
[3] = Selectivity index, ratio of CC50 for cytotoxicity against African green monkey Vero cells to EC50 for antiviral activity against DENV4 P11-08 infected in African green monkey Vero cells; type: toxicity, cell-based; details: read-out: Ratio CC50/EC50
[4] = Selectivity index, ratio of CC50 for cytotoxicity against African green monkey Vero cells to EC50 for antiviral activity against DENV3 P12-08 infected in African green monkey Vero cells; type: toxicity, cell-based; details: read-out: Ratio CC50/EC50
[5] = Selectivity index, ratio of CC50 for cytotoxicity against African green monkey Vero cells to EC50 for antiviral activity against DENV1 P03-08 infected in African green monkey Vero cells; type: toxicity, cell-based; details: read-out: Ratio CC50/EC50
[6] = Selectivity index, ratio of CC50 for cytotoxicity against African green monkey Vero cells to EC50 for antiviral activity against DENV2 New Guinea C infected in African green monkey Vero cells; type: toxicity, cell-based; details: read-out: Ratio CC50/EC50
[7] = Inhibition of DENV1 NS2B-NS3 protease expressed in Escherichia coli BL21 (DE3) using Bz-Nle-Lys-Arg-Arg-AMC as substrate preincubated for 30 mins followed by substrate addition by fluorescence plate reader analysis; parameters: species or system dengue virus type 1
[8] = Inhibition of DENV4 NS2B-NS3 protease expressed in Escherichia coli BL21 (DE3) using Bz-Nle-Lys-Arg-Arg-AMC as substrate preincubated for 30 mins followed by substrate addition by fluorescence plate reader analysis; parameters: species or system dengue virus type 4
[9] = Inhibition of DENV2 NS2B-NS3 protease expressed in Escherichia coli BL21 (DE3) using Bz-Nle-Lys-Arg-Arg-AMC as substrate preincubated for 30 mins followed by substrate addition by fluorescence plate reader analysis; parameters: species or system dengue virus type 2
[10] = Inhibition of DENV3 NS2B-NS3 protease expressed in Escherichia coli BL21 (DE3) using Bz-Nle-Lys-Arg-Arg-AMC as substrate preincubated for 30 mins followed by substrate addition by fluorescence plate reader analysis; parameters: species or system dengue virus type 3
[11] = Inhibition of DENV2 NS2B-NS3 protease using Bz-Nle-Lys-Arg-Arg-AMC as substrate preincubated for 15 mins followed by substrate addition by fluorescence assay; parameters: species or system dengue virus type 2
dengue virus type 2 = assay: Antiviral activity against DENV2 infected in Golden hamster BHK-21 cells assessed as reduction in viral titer incubated for 72 hrs by plaque-forming assay; type: functional, organism-based; details: BHK-21, 72 h
[12] = Inhibition of DENV2 N-terminally hexa-His tagged NS2B (49 to 92 residues) -NS3 (1 to 184 residues) protease using Ac-TTSTRR-pNA as substrate preincubated for 10 mins followed by substrate addition and measured after 120 mins by HTS assay; parameters: species or system dengue virus type 2
[13] = Inhibition of DENV1 recombinant NS2B-NS3 protease expressed in Escherichia coli using Abz-RRRRSAG-nY-NH2 as substrate preincubated for 20 mins at 37 degC followed by substrate addition measured after 60 mins by fluorescence spectrophotometric analysis; parameters: species or system dengue virus type 1
[14] = Inhibition of DENV4 recombinant NS2B-NS3 protease expressed in Escherichia coli using Abz-RRRRSAG-nY-NH2 as substrate preincubated for 20 mins at 37 degC followed by substrate addition measured after 60 mins by fluorescence spectrophotometric analysis; parameters: species or system dengue virus type 4
[15] = Inhibition of DENV2 recombinant NS2B-NS3 protease expressed in Escherichia coli using Abz-RRRRSAG-nY-NH2 as substrate preincubated for 20 mins at 37 degC followed by substrate addition measured after 60 mins by fluorescence spectrophotometric analysis; parameters: species or system dengue virus type 2
[16] = Inhibition of DENV3 recombinant NS2B-NS3 protease expressed in Escherichia coli using Abz-RRRRSAG-nY-NH2 as substrate preincubated for 20 mins at 37 degC followed by substrate addition measured after 60 mins by fluorescence spectrophotometric analysis; parameters: species or system dengue virus type 3

SMILES: O=C1c2c(O)ccc([N+](=O)[O-])c2C(=O)c2c([N+](=O)[O-])ccc(O)c21
Ki [1]: 4.2 µM
Ki [2]: 432 µM

SMILES: Cc1ccc(S(=O)(=O)Nc2cc(SCC(=O)O)c(O)c3ccccc23)cc1[N+](=O)[O-]
selectivity ratio [3]: 90.8
selectivity ratio [4]: 27.7
selectivity ratio [5]: 69.3
selectivity ratio [6]: 68.6

IC50 [7]: 2 µM
IC50 [8]: 2 µM
IC50 [9]: 2.3 µM
IC50 [10]: 1.6 µM
SMILES: O=C(Nc1nc2cc(O)c(O)cc2s1)c1ccccc1Oc1ccc2cc(O)ccc2c1

IC50 [11]: 48.2 µM
SMILES: CCc1ccc(NS(=O)(=O)c2ccc(N3C(=O)c4ccccc4C3=O)cc2)cc1

IC50 [12]: 22.6 µM
SMILES: c1ccc(-c2ccc(Nc3nnc(Nc4ccc(C5=NCCN5)cc4)c4ccccc34)cc2)cc1
EC50 (dengue virus type 2): 0.23 µM

SMILES: NC(=O)[C@H](Cc1c[nH]c2ccccc12)NC(=O)[C@H](CS)NC(=O)[C@H](Cc1ccc(O)cc1)NC(=O)[C@@H](N)Cc1c[nH]c2ccccc12 (H-WYCW-NH2)
Ki [13]: 4.2 µM
Ki [14]: 11.2 µM
Ki [15]: 4.8 µM
Ki [16]: 24.4 µM
